Data reported in patent publication US20210340500A1, “METHOD FOR PRODUCING INTESTINAL CELLS FROM PLURIPOTENT STEM CELLS” (TOKYO INSTITUTE OF TECHNOLOGY, priority 2018, published 2021).

Key:
[1] = target: P-gp (Homo sapiens, UniProt P08183)
[2] = test system: Caco-2 cells; experiment: Transport across Caco-2 cell monolayer (literature); type: in vitro ADME, human; conditions: corresponds to the literature value
[3] = test system: hiPSC-derived enterocytes
[4] = test system: Caco-2 cells; conditions: cited from earlier work
[5] = target: CYP3A4 (Homo sapiens, UniProt P08684); experiment: CYP metabolism assay (midazolam hydroxylation, LC-MS/MS) in hiPS-derived enterocytes; conditions: day 21 of differentiation, 120 min incubation
Sequence of CYP3A4 (P08684 whole entry): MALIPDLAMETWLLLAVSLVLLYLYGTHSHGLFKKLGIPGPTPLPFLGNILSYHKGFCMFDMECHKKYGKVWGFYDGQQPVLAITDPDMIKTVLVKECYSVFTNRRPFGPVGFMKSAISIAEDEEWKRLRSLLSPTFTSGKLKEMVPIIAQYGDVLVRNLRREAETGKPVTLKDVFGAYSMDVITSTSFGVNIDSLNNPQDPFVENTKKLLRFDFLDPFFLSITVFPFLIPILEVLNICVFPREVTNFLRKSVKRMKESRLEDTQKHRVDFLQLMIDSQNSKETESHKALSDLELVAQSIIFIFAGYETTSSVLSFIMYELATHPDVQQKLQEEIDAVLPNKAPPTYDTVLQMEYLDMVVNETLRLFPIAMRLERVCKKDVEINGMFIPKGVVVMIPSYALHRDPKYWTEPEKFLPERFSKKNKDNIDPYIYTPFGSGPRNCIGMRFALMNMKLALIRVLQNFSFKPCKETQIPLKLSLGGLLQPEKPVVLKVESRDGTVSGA

[6] = test system: CYP3A4 expression; experiment: CYP3A4 mRNA expression in hiPSC-derived enterocytes by real time PCR; type: cell-based, human; conditions: day 21 of differentiation
Protocol: For intestine differentiation, the day 10 intestinal precursor cell stock was freeze thawed, and plated onto a rehydrated vitrigel membrane (CVM) 24-well insert (ad-MED Vitrigel™ 2, KANTO KAGAKU, culture area: 0.33 cm^2/insert) in M2 medium at a concentration of 1.6×10^5 cells/well. Y-27632 (WAKO: 251-00514) was added to the medium upon plating for the first 2 days. The cells were cultured in M2 until day 15. A volume of the medium was 200 μL for an upper layer and 700 μL for a lower layer of the cell culture insert. The medium was changed to M3-1 or M3-2 for days 15 to 21, or up to day 30. The medium was replaced every 2 days with a fresh medium.
M3-1 medium: William's Medium E supplemented with L-glutamine, HCM SingleQuots (containing neither GA1000 nor human EGF) (Lonza, CC-4182), 1% PS (Nacalai), 10 ng/ml recombinant human HGF (PeproTech 100-39), 1 μM dexamethasone (Sigma-Aldrich, D8893), 1.4 μM BIO, and 1 M calcitriol (Sigma-Aldrich, D1530). […]
For a reverse transcription reaction, 2.5 μg of RNA was reverse-transcribed using PrimeScript™ RT Master Mix (Takara, Japan). For real-time PCR analysis, mRNA expression was quantified with SyberGreen on a StepOne Plus (Applied Biosystems, Foster City, Calif.). […] A target mRNA level was expressed as an arbitrary unit, and was determined using the ΔΔ CT method.

Sequence of P-gp (P08183 whole entry): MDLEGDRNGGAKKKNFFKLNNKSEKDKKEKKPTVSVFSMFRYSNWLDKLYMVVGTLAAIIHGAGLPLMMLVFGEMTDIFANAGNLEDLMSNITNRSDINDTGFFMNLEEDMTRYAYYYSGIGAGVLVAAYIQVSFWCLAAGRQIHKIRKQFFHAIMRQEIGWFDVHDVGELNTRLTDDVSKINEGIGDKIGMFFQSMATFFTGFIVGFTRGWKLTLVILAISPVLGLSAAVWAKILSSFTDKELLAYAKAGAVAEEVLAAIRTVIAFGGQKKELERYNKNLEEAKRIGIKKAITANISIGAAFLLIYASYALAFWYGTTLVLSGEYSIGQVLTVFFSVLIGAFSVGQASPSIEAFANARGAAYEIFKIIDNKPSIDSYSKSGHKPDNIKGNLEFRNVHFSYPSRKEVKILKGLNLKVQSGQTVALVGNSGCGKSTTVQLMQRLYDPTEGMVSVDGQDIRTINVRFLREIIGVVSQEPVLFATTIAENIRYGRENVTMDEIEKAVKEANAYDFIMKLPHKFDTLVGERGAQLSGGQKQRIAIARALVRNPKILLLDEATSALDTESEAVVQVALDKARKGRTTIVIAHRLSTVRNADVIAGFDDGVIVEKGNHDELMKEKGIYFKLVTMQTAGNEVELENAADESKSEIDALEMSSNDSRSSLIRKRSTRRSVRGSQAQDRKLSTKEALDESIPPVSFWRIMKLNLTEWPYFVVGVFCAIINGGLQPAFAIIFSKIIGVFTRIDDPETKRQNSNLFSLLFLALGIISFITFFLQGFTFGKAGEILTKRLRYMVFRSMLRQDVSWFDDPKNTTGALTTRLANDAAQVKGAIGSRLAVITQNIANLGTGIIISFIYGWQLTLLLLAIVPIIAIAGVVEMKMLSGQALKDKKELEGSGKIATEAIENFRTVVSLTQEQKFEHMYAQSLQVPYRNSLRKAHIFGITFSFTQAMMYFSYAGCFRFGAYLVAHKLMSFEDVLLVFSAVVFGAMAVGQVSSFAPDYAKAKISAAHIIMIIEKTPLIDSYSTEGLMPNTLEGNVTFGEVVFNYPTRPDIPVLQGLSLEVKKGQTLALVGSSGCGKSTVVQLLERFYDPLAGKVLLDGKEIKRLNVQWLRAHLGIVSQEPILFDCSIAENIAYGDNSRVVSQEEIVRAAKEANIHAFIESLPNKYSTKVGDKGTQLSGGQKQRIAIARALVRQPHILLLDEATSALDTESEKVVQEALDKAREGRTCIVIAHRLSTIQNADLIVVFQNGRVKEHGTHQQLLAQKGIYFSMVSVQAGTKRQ

## C[C@H]1O[C@@H](O[C@H]2[C@@H](O)C[C@H](O[C@H]3[C@@H](O)C[C@H](O[C@H]4CC[C@@]5(C)[C@H](CC[C@@H]6[C@@H]5C[C@@H](O)[C@]5(C)[C@@H](C7=CC(=O)OC7)CC[C@]65O)C4)O[C@@H]3C)O[C@@H]2C)C[C@H](O)[C@@H]1O [digoxin]
[1]
  directional B-to-A transport compared with A-to-B transport: at a level higher than apical-to-basal transport

## CC(C)NCC(O)COc1cccc2ccccc12 (centres unmarked) [propranolol]
[2]
  transcellular transport in the Caco-2 cells, converted: approximately 99.4 μL/120 min/well
[3]; human, 120 min, 0.1 μCi/3 mL, pH 7.4
  transcellular transport (present result): 48 μL/120 min/well
[4]; Artursson 1990
  transcellular transport in the Caco-2 cells: 4.19e-05 cm/s

## Cc1ncc2n1-c1ccc(Cl)cc1C(c1ccccc1F)=NC2 [midazolam]
[5]
  clearance rate of formation of 1′-OH midazolam: 0.773 μL/min/mg cellular protein

## C=C1/C(=C\C=C2/CCC[C@]3(C)[C@@H]([C@H](C)CCCC(C)(C)O)CC[C@@H]23)C[C@@H](O)C[C@@H]1O [calcitriol]
[6]
  CYP3A4 expression when calcitriol is removed from M3-2 medium: minimally expressed CYP3A4

## OC[C@@H](O)[C@@H](O)[C@H](O)[C@H](O)CO [mannitol]
[3]
  directional transport across a cell monolayer: directional transport of neither propranolol nor mannitol across a cell monolayer was observed
[4]; Cogburn et al. 1991
  transport clearance across a Caco-2 cell monolayer (paracellular): 3 %/cm^2/hr
